Test system: NOMO1
Test: cell viability relative to DMSO control; higher = less cytotoxic
Details: 48 h
Outline: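 Viability is a per-plate percentage relative to DMSO wells, with cell-free wells as background. CellTiter-Glo One luminescence was read after 48 h at 37°C on 1536-well plates (5 μl) of NOMO1 or SEM (500 cells/well) or P12-Ichikawa (1000 cells/well) leukemia cells. The cells had been adapted for at least four passages in each medium and pin-dosed with library compounds in DMSO from 47 μM to 0.79 nM in 11 threefold steps.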

[1] = HPLM + 10% dialyzed FBS, 0.000781 µM
[2] = HPLM + 10% dialyzed FBS, 0.00234 µM
[3] = HPLM + 10% dialyzed FBS, 0.00702 µM
[4] = HPLM + 10% dialyzed FBS, 0.0211 µM
[5] = HPLM + 10% dialyzed FBS, 0.0632 µM
[6] = HPLM + 10% dialyzed FBS, 0.19 µM
[7] = HPLM + 10% dialyzed FBS, 0.569 µM
[8] = HPLM + 10% dialyzed FBS, 1.71 µM
[9] = HPLM + 10% dialyzed FBS, 5.12 µM
[10] = HPLM + 10% dialyzed FBS, 15.4 µM
[11] = HPLM + 10% dialyzed FBS, 46.1 µM
[12] = RPMI 5 mM glucose + 10% FBS, 0.000781 µM
[13] = RPMI 5 mM glucose + 10% FBS, 0.00234 µM
[14] = RPMI 5 mM glucose + 10% FBS, 0.00702 µM
[15] = RPMI 5 mM glucose + 10% FBS, 0.0211 µM
[16] = RPMI 5 mM glucose + 10% FBS, 0.0632 µM
[17] = RPMI 5 mM glucose + 10% FBS, 0.19 µM
[18] = RPMI 5 mM glucose + 10% FBS, 0.569 µM
[19] = RPMI 5 mM glucose + 10% FBS, 1.71 µM
[20] = RPMI 5 mM glucose + 10% FBS, 5.12 µM
[21] = RPMI 5 mM glucose + 10% FBS, 15.4 µM
[22] = RPMI 5 mM glucose + 10% FBS, 46.1 µM
[23] = RPMI 5 mM glucose + 10% dialyzed FBS, 0.000781 µM
[24] = RPMI 5 mM glucose + 10% dialyzed FBS, 0.00234 µM
[25] = RPMI 5 mM glucose + 10% dialyzed FBS, 0.00702 µM
[26] = RPMI 5 mM glucose + 10% dialyzed FBS, 0.0211 µM
[27] = RPMI 5 mM glucose + 10% dialyzed FBS, 0.0632 µM
[28] = RPMI 5 mM glucose + 10% dialyzed FBS, 0.19 µM
[29] = RPMI 5 mM glucose + 10% dialyzed FBS, 0.569 µM
[30] = RPMI 5 mM glucose + 10% dialyzed FBS, 1.71 µM
[31] = RPMI 5 mM glucose + 10% dialyzed FBS, 5.12 µM
[32] = RPMI 5 mM glucose + 10% dialyzed FBS, 15.4 µM
[33] = RPMI 5 mM glucose + 10% dialyzed FBS, 46.1 µM

| SMILES | cell viability [1] | cell viability [2] | cell viability [3] | cell viability [4] | cell viability [5] | cell viability [6] | cell viability [7] | cell viability [8] | cell viability [9] | cell viability [10] | cell viability [11] | cell viability [12] | cell viability [13] | cell viability [14] | cell viability [15] | cell viability [16] | cell viability [17] | cell viability [18] | cell viability [19] | cell viability [20] | cell viability [21] | cell viability [22] | cell viability [23] | cell viability [24] | cell viability [25] | cell viability [26] | cell viability [27] | cell viability [28] | cell viability [29] | cell viability [30] | cell viability [31] | cell viability [32] | cell viability [33] |
| --- | --- | --- | --- | --- | --- | --- | --- | --- | --- | --- | --- | --- | --- | --- | --- | --- | --- | --- | --- | --- | --- | --- | --- | --- | --- | --- | --- | --- | --- | --- | --- | --- | --- |
| COc1cc2nccc(Oc3ccc(NC(=O)Nc4ccc(F)cc4F)c(F)c3)c2cc1OC | 101% | 95.8% | 94.1% | 84.6% | 89.9% | 86% | 90.3% | 83.6% | 75% | 78.7% | 72.2% | 83% | 95.8% | 79.6% | 90.5% | 96.2% | 88.1% | 87.5% | 90.9% | 83% | 80.1% | 75.7% | 96.6% | 96.1% | 103% | 91.9% | 94.5% | 90.1% | 81.7% | 102% | 80.7% | 83.2% | 54.6% |
| C[C@H]1CN(C[C@@H](C)O1)CC(=O)NC2=CC=C3SC4=C(CC3=C2)C=CC=C4\C5=C\C(=O)\C=C(/O5)N6CCOCC6 | 100% | 125% | 108% | 123% | 126% | 128% | 118% | 89.2% | 72.5% | 39.2% | 35% | 93.4% | 125% | 121% | 118% | 107% | 106% | 98.7% | 106% | 96.8% | 64.2% | 55.8% | 85% | 108% | 107% | 106% | 104% | 113% | 100% | 97.3% | 85.5% | 62.7% | 45.2% |
| CSC1=CC(=CC=C1)NC2=NC3=C(C=N2)/C=C(C(=O)N3C)/C4=C(Cl)C=CC=C4Cl | 96.6% | 114% | 118% | 101% | 119% | 101% | 108% | 107% | 115% | 114% | 108% | 96.1% | 124% | 128% | 109% | 118% | 101% | 121% | 118% | 103% | 116% | 102% | 84.7% | 95.5% | 104% | 91.3% | 120% | 118% | 109% | 112% | 111% | 94% | 108% |
| CN1C(=O)\C(=C/C(=C1/NC2=C(F)C=C(I)C=C2)C(=O)NOCCO)C | 89.8% | 89.6% | 77.9% | 64.2% | 46.3% | 45.8% | 40.2% | 41.6% | 32.9% | 39.8% | 36.1% | 86% | 93.8% | 75.3% | 72% | 50.2% | 52.2% | 49.4% | 46.7% | 43.4% | 41.4% | 46.5% | 75% | 81.7% | 78.5% | 62.9% | 45.9% | 40.8% | 40% | 40.4% | 37.6% | 43.1% | 43.3% |
| Fc1cc(-c2cccc3ncc(-c4cnn(C5CCNCC5)c4)nc23)cc(F)c1CN1CCOCC1 | 111% | 122% | 130% | 132% | 108% | 124% | 135% | 103% | 42.6% | 21.5% | 16.1% | 109% | 107% | 119% | 102% | 111% | 116% | 114% | 105% | 84% | 29.4% | 18.3% | 128% | 115% | 124% | 122% | 125% | 103% | 119% | 103% | 95.2% | 54.9% | 25.9% |
| CC(=O)N1CCN(c2ccc(OCc3nn(C)c(C)c3-c3cccc4c(CCCOc5cc(C)c(Cl)c(C)c5)c(C(=O)O)n(Cc5cccnc5)c34)cc2)CC1 | 111% | 108% | 132% | 114% | 126% | 130% | 120% | 130% | 131% | 120% | 84.6% | 111% | 115% | 124% | 150% | 130% | 136% | 146% | 126% | 120% | 134% | 94.6% | 115% | 112% | 122% | 135% | 135% | 133% | 139% | 142% | 156% | 137% | 124% |
| Cc1cc(Nc2ncc(Cl)c(Nc3ccccc3[S+](=O)([O-])C(C)C)n2)c(OC(C)C)cc1C1CCNCC1 | – | – | – | – | – | – | – | – | – | – | – | 126% | 113% | 112% | 132% | 126% | 127% | 115% | 97% | 76.8% | 54.1% | 6.06% | 127% | 120% | 112% | 117% | 122% | 109% | 105% | 114% | 67% | 52% | 4.03% |
| C1Cc2[nH]nc(-c3nn[nH]n3)c2C1 | 128% | 120% | 119% | 139% | 149% | 145% | 131% | 143% | 140% | 145% | 142% | – | – | – | – | – | – | – | – | – | – | – | 122% | 124% | 131% | 139% | 135% | 144% | 137% | 147% | 131% | 145% | 149% |
